Results as given in publication PMC13503280, “A pharmacological modality to sequester homomeric proteins” (Nature Chemical Biology, 2026).

These compounds were tested against T1, recombinant Keap1 BTB (Homo sapiens, UniProt Q14145, S172A) (assay: DLS of recombinant Keap1 BTB domain). Conditions: 50 μM Keap1 BTB, 50 μM compound, room temperature, over time.
T1 construct: The Keap1 BTB domain (48–180) encoding the single substitution S172A was cloned into pET28-bdSumo vector; His–bdSumo (N, cleaved yes); made in house; host or cells: E. coli BL21(DE3)
Assay type: biochemical
Protocol: (§1) DLS samples were prepared in the respective protein’s elution buffer, to which 0.01% Tween was added, along with the compound from a DMSO stock to obtain a final DMSO concentration of 2%. Samples were prepared at room temperature and measured at a constant temperature of 25 °C. All samples were passed through 0.1-μm filters and then placed in a clear-bottom black 384-well plate. DLS data were recorded using a DynaproPlate Reader III (Wyatt Technology). Data were processed with the supplied DYNAMICS software.

T1 sequence (Q14145 48-180 S172A): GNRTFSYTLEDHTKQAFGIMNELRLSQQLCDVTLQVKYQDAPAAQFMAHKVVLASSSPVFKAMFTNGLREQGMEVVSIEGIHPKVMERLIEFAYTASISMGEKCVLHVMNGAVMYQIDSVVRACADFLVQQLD

formation of large species (DLS) | SMILES
formation of large species over time | CC1(C)CCC2(C(=O)NCCCCCCNC(=O)C34CCC(C)(C)CC3C3C(=O)C=C5C6(C)C=C(C#N)C(=O)C(C)(C)C6CCC5(C)C3(C)CC4)CCC3(C)C(C(=O)C=C4C5(C)C=C(C#N)C(=O)C(C)(C)C5CCC43C)C2C1 (stereo not drawn) [EL132]
formation of large species over time | CC1(C)CCC2(C(=O)NCCN3CCN(CCNC(=O)C45CCC(C)(C)CC4C4C(=O)C=C6C7(C)C=C(C#N)C(=O)C(C)(C)C7CCC6(C)C4(C)CC5)CC3)CCC3(C)C(C(=O)C=C4C5(C)C=C(C#N)C(=O)C(C)(C)C5CCC43C)C2C1 (stereo not drawn) [EL165]

Each compound was assayed against T2, recombinant NQO2 (Homo sapiens, UniProt P16083) (assay: DLS of recombinant NQO2). Conditions: recombinant NQO2, room temperature, over time.
T2 construct: made in house; host or cells: E. coli BL21(DE3)
T2 sequence (P16083 1-231): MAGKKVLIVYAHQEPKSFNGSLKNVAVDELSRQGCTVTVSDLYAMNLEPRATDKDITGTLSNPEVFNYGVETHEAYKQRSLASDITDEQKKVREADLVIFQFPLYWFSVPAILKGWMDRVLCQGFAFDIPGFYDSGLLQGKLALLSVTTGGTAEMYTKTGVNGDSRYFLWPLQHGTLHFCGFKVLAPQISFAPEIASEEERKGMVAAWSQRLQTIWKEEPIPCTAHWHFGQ
Assay type: biochemical
Protocol: as §1

SMILES | formation of larger species (DLS)
Cc1ccc(-c2cn3cccc(C)c3n2)cc1S(=O)(=O)N1CCN(C(=O)CCOCCOCCOCCOCCOCCOCCOCCOCCOCCOCCC(=O)N2CCN(S(=O)(=O)c3cc(-c4cn5cccc(C)c5n4)ccc3C)CC2)CC1 [EL241] | little to no effect in polymerizing NQO2
Cc1ccc(-c2cn3cccc(C)c3n2)cc1S(=O)(=O)N1CCN(C(=O)COCC(=O)N2CCN(S(=O)(=O)c3cc(-c4cn5cccc(C)c5n4)ccc3C)CC2)CC1 [EL244] | ability to form larger species in solution
Cc1ccc(-c2cn3cccc(C)c3n2)cc1S(=O)(=O)N1CCN(C(=O)COCCOCC(=O)N2CCN(S(=O)(=O)c3cc(-c4cn5cccc(C)c5n4)ccc3C)CC2)CC1 [EL245] | ability to form larger species in solution

What follows are compounds tested against Keap1 (Homo sapiens, UniProt Q14145) (assay: WB of Keap1 in OCI-AML2 cells (soluble/insoluble phase)). Conditions: OCI-AML2 cells, 20 h treatment.
Assay type: cell-based
Set-up: endogenous in cells; host or cells: OCI-AML2
Protocol: Cells were incubated with DMSO at 0.1% or with compound in concentrations ranging 10–20,000 nM for 20 h unless indicated differently. Following incubation, lysis was performed in RIPA buffer and the samples were measured for total protein quantification by BCA assay (Thermo Fisher Scientific, 23225). Then, 20–40 μg of each sample was loaded and run on an SDS–PAGE gel, before transferring onto a nitrocellulose membrane using a Trans-Blot Turbo system (Bio-Rad) and blocking using a 5% BSA in TBS-T (w/v) solution for 1 h at room temperature. Incubation with primary antibodies (mouse anti-BCL-6 (sc-7388, Santa Cruz, 1:500; overnight at 4 °C), mouse anti-Keap1 (sc-365626, Santa Cruz, 1:500; overnight at 4 °C), rabbit anti-LDHA (4H18L6, Thermo Fisher, 1:1,000; overnight at 4 °C), mouse anti-NQO2 (sc-271665, Santa Cruz, 1:500; overnight at 4 °C), rabbit anti-c-Myc (5605, Cell Signaling, 1:1,000; overnight at 4 °C) and mouse anti-β-actin (3700, Cell Signaling, 1:1,000; 1 h at room temperature) was performed and then the membranes were washed and incubated with a horseradish-peroxidase-conjugated secondary antibody (mouse 7076/rabbit 7074, Cell Signaling) at room temperature for 1 h. Imaging of the chemiluminescence signal was performed using a ChemiDoc XRS+ instrument (Bio-Rad). Primary band quantifications were normalized against β-actin bands.

Sequence of Keap1 (Q14145 whole entry): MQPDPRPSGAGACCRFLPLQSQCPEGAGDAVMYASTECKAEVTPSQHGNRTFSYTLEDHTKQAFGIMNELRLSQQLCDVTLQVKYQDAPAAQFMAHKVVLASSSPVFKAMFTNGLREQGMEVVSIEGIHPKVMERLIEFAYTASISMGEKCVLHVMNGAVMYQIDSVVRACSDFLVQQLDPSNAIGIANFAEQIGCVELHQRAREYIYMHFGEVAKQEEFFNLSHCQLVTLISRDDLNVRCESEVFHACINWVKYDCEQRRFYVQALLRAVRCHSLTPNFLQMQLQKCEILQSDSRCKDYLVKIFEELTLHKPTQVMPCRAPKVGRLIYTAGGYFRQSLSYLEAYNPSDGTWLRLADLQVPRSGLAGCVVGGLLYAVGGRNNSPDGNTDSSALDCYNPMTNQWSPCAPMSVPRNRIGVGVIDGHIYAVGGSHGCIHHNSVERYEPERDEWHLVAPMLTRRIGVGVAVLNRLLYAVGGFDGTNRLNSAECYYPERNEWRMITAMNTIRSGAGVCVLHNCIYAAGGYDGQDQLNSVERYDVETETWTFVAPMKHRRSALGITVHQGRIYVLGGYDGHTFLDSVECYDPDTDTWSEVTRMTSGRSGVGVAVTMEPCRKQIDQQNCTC

SMILES | Keap1 in soluble and insoluble fraction (WB activity)
CC1(C)CCC2(C(=O)NCCOCCNC(=O)C34CCC(C)(C)CC3C3C(=O)C=C5C6(C)C=C(C#N)C(=O)C(C)(C)C6CCC5(C)C3(C)CC4)CCC3(C)C(C(=O)C=C4C5(C)C=C(C#N)C(=O)C(C)(C)C5CCC43C)C2C1 (stereo not drawn) [EL147] | no activity
CC1(C)CCC2(C(=O)NCCOCCOCCOCCNC(=O)C34CCC(C)(C)CC3C3C(=O)C=C5C6(C)C=C(C#N)C(=O)C(C)(C)C6CCC5(C)C3(C)CC4)CCC3(C)C(C(=O)C=C4C5(C)C=C(C#N)C(=O)C(C)(C)C5CCC43C)C2C1 (stereo not drawn) [EL151] | no activity
CC1(C)CCC2(C(=O)NCC3CCC(CNC(=O)C45CCC(C)(C)CC4C4C(=O)C=C6C7(C)C=C(C#N)C(=O)C(C)(C)C7CCC6(C)C4(C)CC5)CC3)CCC3(C)C(C(=O)C=C4C5(C)C=C(C#N)C(=O)C(C)(C)C5CCC43C)C2C1 (stereo not drawn) [EL159] | no activity
CC1(C)CCC2(C(=O)NCCOCCOCCOCCOCCOCCOCCOCCOCCOCCOCCOCCOCCOCCNC(=O)C34CCC(C)(C)CC3C3C(=O)C=C5C6(C)C=C(C#N)C(=O)C(C)(C)C6CCC5(C)C3(C)CC4)CCC3(C)C(C(=O)C=C4C5(C)C=C(C#N)C(=O)C(C)(C)C5CCC43C)C2C1 (stereo not drawn) [EL229] | reduced Keap1 in the cell’s soluble fraction and induced its accumulation in the insoluble fraction

Other lines, results leading:

Keap1 in soluble and insoluble fraction (WB activity) | SMILES
no activity | CC1(C)CCC2(C(=O)NCCCCCCCCNC(=O)C34CCC(C)(C)CC3C3C(=O)C=C5C6(C)C=C(C#N)C(=O)C(C)(C)C6CCC5(C)C3(C)CC4)CCC3(C)C(C(=O)C=C4C5(C)C=C(C#N)C(=O)C(C)(C)C5CCC43C)C2C1 (stereo not drawn) [EL163]
no activity | CC1(C)CCC2(C(=O)NCC(=O)N3CCN(C(=O)CNC(=O)C45CCC(C)(C)CC4C4C(=O)C=C6C7(C)C=C(C#N)C(=O)C(C)(C)C7CCC6(C)C4(C)CC5)CC3)CCC3(C)C(C(=O)C=C4C5(C)C=C(C#N)C(=O)C(C)(C)C5CCC43C)C2C1 (stereo not drawn) [EL174]

Same assay, conditions: OCI-AML2 cells, 20 h treatment; read-out: EC50 (Keap1 downregulation, WB)

SMILES | EC50 [nM]
CC1(C)CCC2(C(=O)NCCCCCCNC(=O)C34CCC(C)(C)CC3C3C(=O)C=C5C6(C)C=C(C#N)C(=O)C(C)(C)C6CCC5(C)C3(C)CC4)CCC3(C)C(C(=O)C=C4C5(C)C=C(C#N)C(=O)C(C)(C)C5CCC43C)C2C1 (stereo not drawn) [EL132] | 1020
CC1(C)CCC2(C(=O)NCCOCCOCCOCCOCCOCCOCCNC(=O)C34CCC(C)(C)CC3C3C(=O)C=C5C6(C)C=C(C#N)C(=O)C(C)(C)C6CCC5(C)C3(C)CC4)CCC3(C)C(C(=O)C=C4C5(C)C=C(C#N)C(=O)C(C)(C)C5CCC43C)C2C1 (stereo not drawn) [EL152] | 904

Further lines, results first:

EC50 [nM] | SMILES
434 | CC1(C)CCC2(C(=O)NCCSCCSCCNC(=O)C34CCC(C)(C)CC3C3C(=O)C=C5C6(C)C=C(C#N)C(=O)C(C)(C)C6CCC5(C)C3(C)CC4)CCC3(C)C(C(=O)C=C4C5(C)C=C(C#N)C(=O)C(C)(C)C5CCC43C)C2C1 (stereo not drawn) [EL164]
342 | CC1(C)CCC2(C(=O)NCCN3CCN(CCNC(=O)C45CCC(C)(C)CC4C4C(=O)C=C6C7(C)C=C(C#N)C(=O)C(C)(C)C7CCC6(C)C4(C)CC5)CC3)CCC3(C)C(C(=O)C=C4C5(C)C=C(C#N)C(=O)C(C)(C)C5CCC43C)C2C1 (stereo not drawn) [EL165]
